Measured values published in patent US4471131A, “Novel silyl esters of N-phosphonomethylglycine” (Monsanto Company, priority 1983, dated 1984).

Columns and labels:
Assay in all cases: post-emergence herbicidal activity, greenhouse
Type in all cases: in vivo
Hemp Sesbania = conditions: Table III
Method in brief: (§1)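 Using pans of compacted topsoil, seeds were pressed in, covered, and grown on a greenhouse sand bench with subirrigation. Once two to three weeks old, plants were sprayed individually in a chamber; pans then returned to the greenhouse, and injury versus controls was noted around 2 and 4 WAT.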

Quackgrass = conditions: Table II
Method in brief: (§2)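 Greenhouse-grown seedlings in soil pans; post-emergence atomizer spray at 2–3 weeks; injury against controls observed twice, near weeks 2 and 4.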

Yellow Nutsedge = conditions: Table II
Method in brief: as §2

Rice = conditions: Table III
Method in brief: as §1

Large Crabgrass = conditions: Table III
Method in brief: as §1

Sugar Beet = conditions: Table III
Method in brief: as §1

Morningglory = system: Morningglory
Method in brief: as §1

Pennsylvania Smartweed = system: Pennsylvania Smartweed
Method in brief: as §1

Soybean = conditions: Table III
Method in brief: as §1

[1] = 2 WAT, 1.1 kg/h, formulated in anhydrous tetrahydrofuran
[2] = 2 WAT, 5.6 kg/h, formulated in anhydrous tetrahydrofuran
[3] = 2 WAT, .28 kg/h, formulated in anhydrous tetrahydrofuran
[4] = 4 WAT, 1.1 kg/h, formulated in anhydrous tetrahydrofuran
[5] = 4 WAT, 5.6 kg/h, formulated in anhydrous tetrahydrofuran
[6] = 4 WAT, .28 kg/h, formulated in anhydrous tetrahydrofuran
[7] = 2 WAT, 11.2 kg/h, formulated in anhydrous tetrahydrofuran
[8] = 4 WAT, 11.2 kg/h, formulated in anhydrous tetrahydrofuran
[9] = Table II, 2 WAT, 5.6 kg/h, formulated in anhydrous tetrahydrofuran
[10] = Table II, 2 WAT, 11.2 kg/h, formulated in anhydrous tetrahydrofuran
[11] = Table II, 4 WAT, 5.6 kg/h, formulated in anhydrous tetrahydrofuran
[12] = Table II, 4 WAT, 11.2 kg/h, formulated in anhydrous tetrahydrofuran
[13] = Table III, 2 WAT, 1.1 kg/h, formulated in anhydrous tetrahydrofuran
[14] = Table III, 2 WAT, 5.6 kg/h, formulated in anhydrous tetrahydrofuran
[15] = Table III, 2 WAT, .28 kg/h, formulated in anhydrous tetrahydrofuran
[16] = Table III, 4 WAT, 1.1 kg/h, formulated in anhydrous tetrahydrofuran
[17] = Table III, 4 WAT, 5.6 kg/h, formulated in anhydrous tetrahydrofuran
[18] = Table III, 4 WAT, .28 kg/h, formulated in anhydrous tetrahydrofuran

CCOC(=O)CNCP(=O)(O)O[Si](c1ccccc1)(c1ccccc1)C(C)(C)C [Ex. 7, Glycine, N--((([(1,1-Dimethylethyl)Diphenylsilyl]Oxy)Hydroxyphosphinyl)Methyl)-,Ethyl Ester]
Plant Response Index (R) (Hemp Sesbania; 2 WAT, 1.1 kg/h): 3 (75-99% inhibition) | Plant Response Index (R) (Hemp Sesbania; [1]): 2 (50-74% inhibition) | Plant Response Index (R) (Hemp Sesbania; 2 WAT, 5.6 kg/h): 1 (25-49% inhibition) | Plant Response Index (R) (Hemp Sesbania; [2]): 1 (25-49% inhibition) | Plant Response Index (R) (Hemp Sesbania; 2 WAT, .28 kg/h): 1 (25-49% inhibition) | Plant Response Index (R) (Hemp Sesbania; [3]): 0 (0-24% inhibition) | Plant Response Index (R) (Hemp Sesbania; 4 WAT, 1.1 kg/h): 4 (100% inhibition) | Plant Response Index (R) (Hemp Sesbania; [4]): 2 (50-74% inhibition) | Plant Response Index (R) (Hemp Sesbania; 4 WAT, 5.6 kg/h): 2 (50-74% inhibition) | Plant Response Index (R) (Hemp Sesbania; [5]): 1 (25-49% inhibition) | Plant Response Index (R) (Hemp Sesbania; 4 WAT, .28 kg/h): 1 (25-49% inhibition) | Plant Response Index (R) (Hemp Sesbania; [6]): 0 (0-24% inhibition) | Plant Response Index (H) (Quackgrass; 2 WAT, 5.6 kg/h): 1 (25-49% inhibition) | Plant Response Index (H) (Quackgrass; [2]): 1 (25-49% inhibition) | Plant Response Index (H) (Quackgrass; 2 WAT, 11.2 kg/h): 2 (50-74% inhibition) | Plant Response Index (H) (Quackgrass; [7]): 1 (25-49% inhibition) | Plant Response Index (H) (Quackgrass; 4 WAT, 5.6 kg/h): 4 (100% inhibition) | Plant Response Index (H) (Quackgrass; [5]): 2 (50-74% inhibition) | Plant Response Index (H) (Quackgrass; 4 WAT, 11.2 kg/h): 3 (75-99% inhibition) | Plant Response Index (H) (Quackgrass; [8]): 2 (50-74% inhibition) | Plant Response Index (G) (Yellow Nutsedge; 2 WAT, 5.6 kg/h): 1 (25-49% inhibition) | Plant Response Index (G) (Yellow Nutsedge; [2]): 1 (25-49% inhibition) | Plant Response Index (G) (Yellow Nutsedge; 2 WAT, 11.2 kg/h): 2 (50-74% inhibition) | Plant Response Index (G) (Yellow Nutsedge; [7]): 1 (25-49% inhibition) | Plant Response Index (G) (Yellow Nutsedge; 4 WAT, 5.6 kg/h): 2 (50-74% inhibition) | Plant Response Index (G) (Yellow Nutsedge; [5]): 2 (50-74% inhibition) | Plant Response Index (G) (Yellow Nutsedge; 4 WAT, 11.2 kg/h): 3 (75-99% inhibition) | Plant Response Index (G) (Yellow Nutsedge; [8]): 2 (50-74% inhibition) | Plant Response Index (O) (Rice; 2 WAT, 1.1 kg/h): 2 (50-74% inhibition) | Plant Response Index (O) (Rice; [1]): 1 (25-49% inhibition) | Plant Response Index (O) (Rice; 2 WAT, 5.6 kg/h): 2 (50-74% inhibition) | Plant Response Index (O) (Rice; [2]): 3 (75-99% inhibition) | Plant Response Index (O) (Rice; 2 WAT, .28 kg/h): 2 (50-74% inhibition) | Plant Response Index (O) (Rice; [3]): 1 (25-49% inhibition) | Plant Response Index (O) (Rice; 4 WAT, 1.1 kg/h): 3 (75-99% inhibition) | Plant Response Index (O) (Rice; [4]): 1 (25-49% inhibition) | Plant Response Index (O) (Rice; 4 WAT, 5.6 kg/h): 3 (75-99% inhibition) | Plant Response Index (O) (Rice; [5]): 3 (75-99% inhibition) | Plant Response Index (O) (Rice; 4 WAT, .28 kg/h): 1 (25-49% inhibition) | Plant Response Index (O) (Rice; [6]): 0 (0-24% inhibition) | Plant Response Index (T) (Large Crabgrass; 2 WAT, 1.1 kg/h): 4 (100% inhibition) | Plant Response Index (T) (Large Crabgrass; [1]): 3 (75-99% inhibition) | Plant Response Index (T) (Large Crabgrass; [2]): 3 (75-99% inhibition) | Plant Response Index (T) (Large Crabgrass; [3]): 2 (50-74% inhibition) | Plant Response Index (T) (Large Crabgrass; 4 WAT, 1.1 kg/h): 4 (100% inhibition) | Plant Response Index (T) (Large Crabgrass; [4]): 3 (75-99% inhibition) | Plant Response Index (T) (Large Crabgrass; [5]): 3 (75-99% inhibition) | Plant Response Index (T) (Large Crabgrass; [6]): 2 (50-74% inhibition) | Plant Response Index (M) (Sugar Beet; 2 WAT, 1.1 kg/h): 1 (25-49% inhibition) | Plant Response Index (M) (Sugar Beet; [1]): 1 (25-49% inhibition) | Plant Response Index (M) (Sugar Beet; 2 WAT, 5.6 kg/h): 1 (25-49% inhibition) | Plant Response Index (M) (Sugar Beet; [2]): 3 (75-99% inhibition) | Plant Response Index (M) (Sugar Beet; 2 WAT, .28 kg/h): 1 (25-49% inhibition) | Plant Response Index (M) (Sugar Beet; [3]): 1 (25-49% inhibition) | Plant Response Index (M) (Sugar Beet; 4 WAT, 1.1 kg/h): 1 (25-49% inhibition) | Plant Response Index (M) (Sugar Beet; [4]): 1 (25-49% inhibition) | Plant Response Index (M) (Sugar Beet; 4 WAT, 5.6 kg/h): 2 (50-74% inhibition) | Plant Response Index (M) (Sugar Beet; [5]): 4 (100% inhibition) | Plant Response Index (M) (Sugar Beet; 4 WAT, .28 kg/h): 1 (25-49% inhibition) | Plant Response Index (M) (Sugar Beet; [6]): 1 (25-49% inhibition) | Plant Response Index (D) (Morningglory; Table II, 2 WAT, 5.6 kg/h): 2 (50-74% inhibition) | Plant Response Index (D) (Morningglory; [9]): 2 (50-74% inhibition) | Plant Response Index (D) (Morningglory; Table II, 2 WAT, 11.2 kg/h): 2 (50-74% inhibition) | Plant Response Index (D) (Morningglory; [10]): 1 (25-49% inhibition) | Plant Response Index (D) (Morningglory; Table II, 4 WAT, 5.6 kg/h): 2 (50-74% inhibition) | Plant Response Index (D) (Morningglory; [11]): 2 (50-74% inhibition) | Plant Response Index (D) (Morningglory; Table II, 4 WAT, 11.2 kg/h): 2 (50-74% inhibition) | Plant Response Index (D) (Morningglory; [12]): 2 (50-74% inhibition) | Plant Response Index (D) (Morningglory; Table III, 2 WAT, 1.1 kg/h): 2 (50-74% inhibition) | Plant Response Index (D) (Morningglory; [13]): 2 (50-74% inhibition) | Plant Response Index (D) (Morningglory; Table III, 2 WAT, 5.6 kg/h): 2 (50-74% inhibition) | Plant Response Index (D) (Morningglory; [14]): 2 (50-74% inhibition) | Plant Response Index (D) (Morningglory; Table III, 2 WAT, .28 kg/h): 2 (50-74% inhibition) | Plant Response Index (D) (Morningglory; [15]): 1 (25-49% inhibition) | Plant Response Index (D) (Morningglory; Table III, 4 WAT, 1.1 kg/h): 2 (50-74% inhibition) | Plant Response Index (D) (Morningglory; [16]): 2 (50-74% inhibition) | Plant Response Index (D) (Morningglory; Table III, 4 WAT, 5.6 kg/h): 3 (75-99% inhibition) | Plant Response Index (D) (Morningglory; [17]): 3 (75-99% inhibition) | Plant Response Index (D) (Morningglory; Table III, 4 WAT, .28 kg/h): 1 (25-49% inhibition) | Plant Response Index (D) (Morningglory; [18]): 1 (25-49% inhibition) | Plant Response Index (F) (Pennsylvania Smartweed; Table II, 2 WAT, 5.6 kg/h): 2 (50-74% inhibition) | Plant Response Index (F) (Pennsylvania Smartweed; [9]): 1 (25-49% inhibition) | Plant Response Index (F) (Pennsylvania Smartweed; Table II, 2 WAT, 11.2 kg/h): 2 (50-74% inhibition) | Plant Response Index (F) (Pennsylvania Smartweed; [10]): 1 (25-49% inhibition) | Plant Response Index (F) (Pennsylvania Smartweed; Table II, 4 WAT, 5.6 kg/h): 4 (100% inhibition) | Plant Response Index (F) (Pennsylvania Smartweed; [11]): 1 (25-49% inhibition) | Plant Response Index (F) (Pennsylvania Smartweed; Table II, 4 WAT, 11.2 kg/h): 2 (50-74% inhibition) | Plant Response Index (F) (Pennsylvania Smartweed; [12]): 4 (100% inhibition) | Plant Response Index (F) (Pennsylvania Smartweed; Table III, 2 WAT, 1.1 kg/h): 3 (75-99% inhibition) | Plant Response Index (F) (Pennsylvania Smartweed; [13]): 4 (100% inhibition) | Plant Response Index (F) (Pennsylvania Smartweed; Table III, 2 WAT, 5.6 kg/h): 2 (50-74% inhibition) | Plant Response Index (F) (Pennsylvania Smartweed; [14]): 4 (100% inhibition) | Plant Response Index (F) (Pennsylvania Smartweed; Table III, 2 WAT, .28 kg/h): 3 (75-99% inhibition) | Plant Response Index (F) (Pennsylvania Smartweed; [15]): 2 (50-74% inhibition) | Plant Response Index (F) (Pennsylvania Smartweed; Table III, 4 WAT, 1.1 kg/h): 3 (75-99% inhibition) | Plant Response Index (F) (Pennsylvania Smartweed; [16]): 4 (100% inhibition) | Plant Response Index (F) (Pennsylvania Smartweed; Table III, 4 WAT, 5.6 kg/h): 3 (75-99% inhibition) | Plant Response Index (F) (Pennsylvania Smartweed; [17]): 4 (100% inhibition) | Plant Response Index (F) (Pennsylvania Smartweed; Table III, 4 WAT, .28 kg/h): 3 (75-99% inhibition) | Plant Response Index (F) (Pennsylvania Smartweed; [18]): 2 (50-74% inhibition) | Plant Response Index (L) (Soybean; 2 WAT, 1.1 kg/h): 2 (50-74% inhibition) | Plant Response Index (L) (Soybean; [1]): 1 (25-49% inhibition) | Plant Response Index (L) (Soybean; 2 WAT, 5.6 kg/h): 2 (50-74% inhibition) | Plant Response Index (L) (Soybean; [2]): 2 (50-74% inhibition) | Plant Response Index (L) (Soybean; 2 WAT, .28 kg/h): 0 (0-24% inhibition) | Plant Response Index (L) (Soybean; [3]): 1 (25-49% inhibition) | Plant Response Index (L) (Soybean; 4 WAT, 1.1 kg/h): 1 (25-49% inhibition) | Plant Response Index (L) (Soybean; [4]): 1 (25-49% inhibition) | Plant Response Index (L) (Soybean; 4 WAT, 5.6 kg/h): 1 (25-49% inhibition) | Plant Response Index (L) (Soybean; [5]): 2 (50-74% inhibition) | Plant Response Index (L) (Soybean; 4 WAT, .28 kg/h): 0 (0-24% inhibition) | Plant Response Index (L) (Soybean; [6]): 1 (25-49% inhibition)
